Data on one sequence can be found in patent US9453226B2, “Protection of cells from Alu-RNA-induced degeneration and inhibitors for protecting cells” (UNIVERSITY OF KENTUCKY RESEARCH FOUNDATION, priority 2011, dated 2016).

One experiment concerns miRNA. Briefly: miRNA abundance in Dicer1-depleted mouse RPE cells. It is filed as cell-based. From the text: Total RNA containing miRNAs was polyadenylated and reverse transcribed using universal primer using the All-In-One miRNA q-RT-PCR Detection Kit (GeneCopoeia) according to the manufacturer's specifications using a universal reverse primer in combination with the following forward primers: mouse miR-184 (5′-[…]-3′); mouse miR-221/222 (5′-[…]-3′); mouse miR-320a (5′-[…]-3′), and mouse miR-484 (5′-[…]-3′). miRNA levels were normalized to levels of U6 snRNA (5′-[…]-3′) using the 2^−ΔΔCt method. Detection was achieved by SYBR green qPCR with the following conditions: 95° C. for 10 min followed by 40 cycles of 95° C. for 10 s, 60° C. for 20 s and 72° C. for 20 s. Amplicon specificity was assessed by melt curve analysis and unique bands by agarose gel electrophoresis.

The next experiment deals with RPE. In words: Alu RNA-induced RPE degeneration in wild-type mice, inhibitors given intravitreously. The note with it: WT mice; subretinal Alu RNA; inhibitor intravitreous. The experiment is classed as in vivo. The protocol: Subretinal injection and imaging. Subretinal injections (1 μL) were performed using a Pico-Injector (PLI-100, Harvard Apparatus). Plasmids were transfected in vivo using 10% Neuroporter (Genlantis). Fundus imaging was performed on a TRC-50 IX camera (Topcon) linked to a digital imaging system (Sony). RPE flat mounts were immunolabeled using antibodies against zonula occludens-1 (Invitrogen).
Retinal photographs of dilated mouse eyes were taken with a TRC-50 IX camera (Topcon) linked to a digital imaging system (Sony).
Human eyes fixed in 2-4% paraformaldehyde were prepared as eyecups, cryoprotected in 30% sucrose, embedded in optimal cutting temperature compound (Tissue-Tek OCT; Sakura Finetek), and cryosectioned into 10 μm sections. Depigmentation was achieved using 0.25% potassium permanganate and 0.1% oxalic acid. Immunohistochemical staining was performed with the rabbit antibody against NLRP3 (1:100, Sigma Aldrich) or rabbit antibody against Caspase-1 (prediluted, AbCam). Isotype IgG was substituted for the primary antibody to assess the specificity of the staining. Bound antibody was detected with biotin-conjugated secondary antibodies, followed by incubation with ABC reagent and visualized by Vector Blue (Vector Laboratories). Levamisole (Vector Laboratories) was used to block endogenous alkaline phosphatase activity. Slides were washed in PBS, counterstained with neutral red (Fisher Scientific), rinsed with deionized water, air dried, and then mounted in Vectamount (Vector Laboratories). Fluorescent labeling of human tissue was performed with the rabbit antibody against PYCARD (1:50, Clone N-15, Santa Cruz Biotechnology) Immunolabeling was visualized by fluorescently conjugated anti-rabbit secondary antibody (Invitrogen). Tissue autofluorescence was quenched by incubating the sections in 0.3% Sudan black (Fisher Scientific). Sections were mounted in Vectashield with DAPI (Vector Laboratories). Mouse RPE/choroid flat mounts were fixed with 4% paraformaldehyde or 100% methanol, stained with rabbit antibodies against human zonula occludens-1 (1:100, Invitrogen) and visualized with Alexa594 (Invitrogen). All images were obtained using the Leica SP-5 or Zeiss Axio Observer Z1 microscopes.
Subretinal injections (1 μL) in mice were performed using a Pico-Injector (PLI-100, Harvard Apparatus). In vivo transfection of plasmids coding for two different Alu sequences (pAlu) or empty control vector (pNull) (Bennett et al., 2008; Kaneko et al., 2011; Shaikh et al., 1997) was achieved using 10% Neuroporter (Genlantis). AAV1-BEST1-Cre (Alexander and Hauswirth, 2008) or AAV1-BEST1-GFP were injected at 1.0×10^11 pfu/mL and in vitro transcribed Alu RNA was injected at 0.3 mg/mL.
siRNAs formulated in siRNA buffer (20 mM KCL, 0.2 mM MgCl2 in HEPES buffer at pH 7.5; Dharmacon) or phosphate buffered saline (PBS; Sigma-Aldrich); the TLR4 antagonist Ultra Pure Rhodobacter sphaeroides LPS (LPS-RS, InvivoGen), a peptide inhibitor of MyD88 homodimerization IMG-2005 (IMGENEX), control inhibitor (IMGENEX), recombinant IL-18 (Medical & Biological Laboratories), neutralizing rat antibodies against mouse IL-1β (IMGENEX), neutralizing rat antibodies against mouse IL-18 (Medical & Biological Laboratories), isotype control IgGs (R&D Systems or eBioscience as appropriate), Caspase-1 inhibitor Z-WEHD-FMK (R&D Systems), Caspase control inhibitor Z-FA-FMK (R&D Systems), DPI (Enzo Life Sciences), Mito-TEMPO (Enzo Life Sciences), MitoQ and dTPP (both adsorbed to cyclodextrin and provided by M.P. Murphy, MRC Mitochondrial Biology Unit), and gp91ds-tat and scrambled gp91 ds-tat (both Anaspec), were dissolved in phosphate buffered saline (PBS; Sigma-Aldrich) or dimethyl sulfoxide (DMSO; Sigma-Aldrich), and injected into the vitreous humor in a total volume of 1 μL with a 33-gauge Exmire microsyringe (Ito Corporation). […] As a control, Luc siRNA-chol (17+2 nt) was used with identical dosages.

In experiment [1] the test system is Dicer1 f/f mouse RPE cells. Briefly: Loss of viability of Dicer1 f/f mouse RPE cells treated with Ad-Cre. The experiment is classed as cell-based. The protocol:
Cells were plated at density of 15×10^3/cm^2 and after 16 h, at approximately 50% confluence, were infected with AdCre or AdNull (Vector Laboratories) with a multiplicity of infection of 1,000.

In the case of “DRQIKIWFQNRRMKWKKRDVLPGT [MyD88 inhibitory peptide]”, in the experiment on miRNA, the “miRNA abundance versus control peptide” value is reported as “No significant difference”. Besides, the “Alu RNA-induced RPE degeneration” value in the experiment with RPE is recorded as “prevented RPE degeneration”. Moreover, in experiment [1], the “loss of cell viability in Dicer1 f/f mouse RPE cells treated with Ad-Cre” value is on record as “rescues”.
